Tests used:
[1] = target: T1, P2Y purinoceptor 14 (Homo sapiens) (UniProt Q15391); test: Agonist activity at human P2Y14 receptor expressed in […] cells at 10 uM; type: functional, cell-based; details: COS-7
T1 sequence (whole entry): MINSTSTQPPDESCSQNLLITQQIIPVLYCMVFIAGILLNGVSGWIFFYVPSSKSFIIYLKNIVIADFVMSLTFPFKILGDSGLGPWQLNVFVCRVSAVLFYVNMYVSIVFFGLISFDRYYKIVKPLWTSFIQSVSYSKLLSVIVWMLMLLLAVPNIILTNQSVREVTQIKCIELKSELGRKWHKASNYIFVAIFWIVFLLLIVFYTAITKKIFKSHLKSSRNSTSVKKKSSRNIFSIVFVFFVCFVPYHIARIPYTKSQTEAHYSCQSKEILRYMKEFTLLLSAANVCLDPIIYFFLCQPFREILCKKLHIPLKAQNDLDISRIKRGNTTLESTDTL

P2Y purinoceptor 14 = target: T2, P2Y purinoceptor 14 (Homo sapiens, UniProt Q15391); test: Agonist activity at human P2Y14 receptor expressed in […] cells; type: functional, cell-based, COS-7
T2 sequence (Q15391 whole entry): T1 sequence (whole entry)

Row | Efficacy [1] | EC50 (P2Y purinoceptor 14) | Compound
1 | < 50% | – | O=c1ccn([C@@H]2O[C@H](COP(=O)(O)OP(=O)(O)OC[C@H]3O[C@H](O)C[C@@H](O)[C@@H]3O)[C@@H](O)[C@H]2O)c(=O)[nH]1
2 | – | 1880 nM | O=c1ccn([C@@H]2O[C@H](COP(=O)(O)OP(=O)(O)O[C@@H]3[C@H](O)[C@H](O)[C@@H](O)[C@H](O)[C@H]3O)[C@@H](O)[C@H]2O)c(=O)[nH]1
3 | – | 496 nM | CC(=O)NCCNC(=O)[C@H]1O[C@H](OP(=O)(O)OP(=O)(O)OC[C@H]2O[C@@H](n3ccc(=O)[nH]c3=O)[C@H](O)[C@@H]2O)[C@H](O)[C@@H](O)[C@@H]1O
4 | < 50% | – | CO/N=c1/ccn([C@@H]2O[C@H](COP(=O)(O)OP(=O)(O)O[C@H]3O[C@H](CO)[C@@H](O)[C@H](O)[C@H]3O)[C@@H](O)[C@H]2O)c(=O)[nH]1
5 | – | 373 nM | O=c1ccn([C@@H]2O[C@H](COP(=O)(O)OP(=O)(O)OC[C@H]3O[C@H](O)[C@H](O)[C@@H](O)[C@@H]3O)[C@@H](O)[C@H]2O)c(=O)[nH]1
6 | – | 2500 nM | O=c1ccn([C@@H]2O[C@H](COP(=O)(O)OP(=O)(O)O[C@H]3O[C@H](CO)[C@@H](O)[C@H](O)[C@H]3F)[C@@H](O)[C@H]2O)c(=O)[nH]1
7 | – | 567 nM | O=c1ccn([C@@H]2O[C@H](COP(=O)(O)OP(=O)(O)O[C@H]3O[C@H](CO)[C@@H](F)[C@H](O)[C@H]3O)[C@@H](O)[C@H]2O)c(=O)[nH]1
8 | – | 658 nM | O=c1ccn([C@@H]2O[C@H](COP(=O)(O)OP(=O)(O)OC[C@H]3O[C@H](O)[C@@H](O)[C@@H](O)[C@@H]3O)[C@@H](O)[C@H]2O)c(=O)[nH]1
9 | – | 361 nM | O=c1ccn([C@@H]2O[C@H](COP(=O)(O)OP(=O)(O)O[C@H]3O[C@H](CO)[C@@H](O)[C@H](F)[C@H]3O)[C@@H](O)[C@H]2O)c(=O)[nH]1
10 | – | 460 nM | O=c1ccn([C@@H]2O[C@H](COP(=O)(O)OP(=O)(O)OC[C@H]3O[C@H](O)[C@@H](O)[C@@H]3O)[C@@H](O)[C@H]2O)c(=O)[nH]1
11 | – | 562 nM | C[C@H]1O[C@H](OP(=O)(O)OP(=O)(O)OC[C@H]2O[C@@H](n3ccc(=O)[nH]c3=O)[C@H](O)[C@@H]2O)[C@H](O)[C@@H](O)[C@H]1O
12 | – | 905 nM | O=c1ccn([C@@H]2O[C@H](COP(=O)(O)OP(=O)(O)O[C@H]3O[C@H](CF)[C@@H](O)[C@H](O)[C@H]3O)[C@@H](O)[C@H]2O)c(=O)[nH]1
13 | < 20% | – | O=c1ccn([C@@H]2C[C@H](COP(=O)(O)OP(=O)(O)O[C@H]3O[C@H](CO)[C@@H](O)[C@H](O)[C@H]3O)[C@@H](O)[C@H]2O)c(=O)[nH]1
14 | < 50% | – | CC(=O)N[C@@H]1[C@@H](O)[C@H](O)[C@@H](CO)O[C@@H]1CP(=O)(O)OP(=O)(O)OC[C@H]1O[C@@H](n2ccc(=O)[nH]c2=O)[C@H](O)[C@@H]1O
15 | – | 290 nM | O=c1[nH]c(=S)ccn1[C@@H]1O[C@H](COP(=O)(O)OP(=O)(O)O[C@H]2O[C@H](CO)[C@@H](O)[C@H](O)[C@H]2O)[C@@H](O)[C@H]1O
16 | – | 323 nM | O=c1ccn([C@@H]2O[C@H](COP(=O)(O)OP(=O)(O)OC[C@H]3O[C@](O)(CO)[C@@H](O)[C@@H]3O)[C@@H](O)[C@H]2O)c(=O)[nH]1
17 | – | 238 nM | O=c1ccn([C@@H]2O[C@H](COP(=O)(O)OP(=O)(O)OC[C@H]3O[C@H](O)[C@H](O)[C@@H]3O)[C@@H](O)[C@H]2O)c(=O)[nH]1
18 | – | 951 nM | CC(C)(C)OC(=O)NCCNC(=O)[C@H]1O[C@H](OP(=O)(O)OP(=O)(O)OC[C@H]2O[C@@H](n3ccc(=O)[nH]c3=O)[C@H](O)[C@@H]2O)[C@H](O)[C@@H](O)[C@@H]1O
